Laboratory results: patent publication US20250074890A1, “CYANOPYRIDINE AND CYANOPYRIMIDINE BCL6 DEGRADERS” (DANA-FARBER CANCER INSTITUTE, INC., priority 2021, published 2025)
Where a name gives a salt, the structure may show the parent alone.

Target: T1, BCL6 (Homo sapiens, UniProt P41182)
T1 construct: Endogenous BCL6 was tagged with the 11-amino acid SmBiT through CRISPR/Cas9 gene editing; endogenous in cells; host or cells: Su-DHL-4 (CRISPR/Cas9 knock-in, single cell clone)
Test: HiBiT cellular degradation assay in Su-DHL-4 cells
Type: cell-based
Details: concentration to reach 50% degradation of endogenous SmBiT-tagged BCL6, 24 hours of compound treatment
Method: DC50 (concentration to reach 50% degradation) values were determined from a cellular degradation assay (HiBiT, Promega™) in Su-DHL-4 cells (Table 1). Endogenous BCL6 was tagged with the 11-amino acid SmBiT through CRISPR/Cas9 gene editing and single cell clone selection. After 24 hours of compound treatment, cells were lysed and incubated with LgBiT protein to reconstitute intact nanoluciferase. Substrate was then added and relative luciferase units were measured. Degradation levels for each treatment were taken as a percentage compared to the control, 100% DMSO (Prism).

DC50 [nM]	SMILES
83	C[C@@H]1CN(c2nc(Nc3ccc4c(c3)n(C[C@H]3CNC(=O)O3)c(=O)n4C)c(F)cc2C#N)C[C@H](C)[C@@H]1F [Compound 86, 5-Fluoro-2-((3S,4S,5R)-4-fluoro-3,5-dimethylpiperidin-1-yl)-6-((1-methyl-2-oxo-3-(((R)-2-oxooxazolidin-5-yl)methyl)-2,3-dihydro-1H-benzo[d]imidazol-5-yl)amino)nicotinonitrile]
> 400	C[C@H]1C[C@@H](N)CN(c2nc(Nc3ccc4c(c3)n(CCC(C)(C)O)c(=O)n4C)c(Cl)cc2C#N)C1 [Compound 35, 2-((3R,5S)-3-Amino-5-methylpiperidin-1-yl)-5-chloro-6-((3-(3-hydroxy-3-methylbutyl)-1-methyl-2-oxo-2,3-dihydro-1H-benzo[d]imidazol-5-yl)amino)nicotinonitrile]
> 400	C[C@@H]1CN(c2nc(Nc3ccc4c(c3)cc(OCC3(C)COC3)c(=O)n4C)c(Cl)cc2C#N)C[C@H](C)C1(F)F [Compound 9, 5-Chloro-2-((3R,5S)-4,4-difluoro-3,5-dimethylpiperidin-1-yl)-6-((1-methyl-3-((3-methyloxetan-3-yl)methoxy)-2-oxo-1,2-dihydroquinolin-6-yl)amino)nicotinonitrile]
48	C[C@@H]1CN(c2nc(Nc3ccc4c(c3)n(CCC3(O)CC3)c(=O)n4C)c(Cl)cc2C#N)C[C@H](N)C1(F)F [Compound 59, 2-((3S,5R)-3-Amino-4,4-difluoro-5-methylpiperidin-1-yl)-5-chloro-6-((3-(2-(1-hydroxycyclopropyl)ethyl)-1-methyl-2-oxo-2,3-dihydro-1H-benzo[d]imidazol-5-yl)amino)nicotinonitrile]
73	C[C@H](O)Cn1c(=O)n(CCC(C)(C)O)c2cc(Nc3nc(N4C[C@@H](N)C(F)(F)[C@@H](C)C4)c(C#N)cc3F)ccc21 [Compound 90, 2-((3R,5S)-3-Amino-4,4-difluoro-5-methylpiperidin-1-yl)-5-fluoro-6-((3-(3-hydroxy-3-methylbutyl)-1-((S)-2-hydroxypropyl)-2-oxo-2,3-dihydro-1H-benzo[d]imidazol-5-yl)amino)nicotinonitrile]
> 400	CC(O)CCn1c(=O)n(C)c2ccc(Nc3nc(N4C[C@H](CCO)[C@@H](F)[C@H](C)C4)c(C#N)cc3F)cc21 (stereo partly drawn) [Compound 57, 5-fluoro-2-[(3S,4S,5R)-4-fluoro-3-(2-hydroxyethyl)-5-methyl-1-piperidyl]-6-[[3-(3-hydroxybutyl)-1-methyl-2-oxo-benzimidazol-5-yl]amino]pyridine-3-carbonitrile]
4	CNC(=O)COc1cc2cc(Nc3nc(N4C[C@@H](C)C(F)[C@@H](C)C4)c(C#N)cc3Cl)ccc2n(CCN2CCOCC2)c1=O (stereo partly drawn) [Compound 68, 2-[[6-[[3-Chloro-5-cyano-6-[(3R,5S)-4-fluoro-3,5-dimethyl-1-piperidyl]-2-pyridyl]amino]-1-(2-morpholinoethyl)-2-oxo-3-quinolyl]oxy]-N-methyl-acetamide]
5	CNC(=O)COc1cc2cc(Nc3nc(N4C[C@@H](C)C(F)(F)[C@@H](C)C4)c(C#N)cc3Cl)ccc2n(CCCO)c1=O [Compound 18, 2-((6-((3-Chloro-5-cyano-6-((3R,5S)-4,4-difluoro-3,5-dimethylpiperidin-1-yl)pyridin-2-yl)amino)-1-(3-hydroxypropyl)-2-oxo-1,2-dihydroquinolin-3-yl)oxy)-N-methylacetamide]
> 400	C[C@@H]1C[C@H](N)CN(c2nc(Nc3ccc4c(c3)n(CCC(C)(C)O)c(=O)n4C)c(Cl)cc2C#N)C1 [Compound 36, 2-((3S,5R)-3-amino-5-methylpiperidin-1-yl)-5-chloro-6-((3-(3-hydroxy-3-methylbutyl)-1-methyl-2-oxo-2,3-dihydro-1H-benzo[d]imidazol-5-yl)amino)nicotinonitrile]
> 400	C[C@H]1CN(c2nc(Nc3ccc4c(c3)n(C[C@@H]3COC(=O)N3)c(=O)n4C)c(F)cc2C#N)C[C@@H](N)C1(F)F [Compound 60, 2-[(3R,5S)-3-Amino-4,4-difluoro-5-methyl-1-piperidyl]-5-fluoro-6-[[1-methyl-2-oxo-3-[[(R)-2-oxooxazolidin-4-yl]methyl]benzimidazol-5-yl]amino]pyridine-3-carbonitrile]
> 400	C[C@@H]1CN(c2nc(Nc3ccc4c(c3)n(CCC(C)(C)O)c(=O)n4C)c(F)cc2C#N)C[C@H](N)C1(F)F [Compound 80, 2-((3S,5R)-3-Amino-4,4-difluoro-5-methylpiperidin-1-yl)-5-fluoro-6-((3-(3-hydroxy-3-methylbutyl)-1-methyl-2-oxo-2,3-dihydro-1H-benzo[d]imidazol-5-yl)amino)nicotinonitrile hydrochloride]
> 400	CC(O)CCn1c(=O)n(C)c2ccc(Nc3nc(N4C[C@@H](CCO)[C@H](F)[C@@H](C)C4)c(C#N)cc3F)cc21 (stereo partly drawn) [Compound 56, 5-fluoro-2-[(3R,4R,5S)-4-fluoro-3-(2-hydroxyethyl)-5-methyl-1-piperidyl]-6-[[3-(3-hydroxybutyl)-1-methyl-2-oxo-benzimidazol-5-yl]amino]pyridine-3-carbonitrile]
4	CNC(=O)COc1cc2cc(Nc3nc(N4C[C@@H](C)C(F)[C@@H](C)C4)c(C#N)cc3Cl)ccc2n(CCN(C)C)c1=O (stereo partly drawn) [Compound 77, 2-((6-((3-Chloro-5-cyano-6-((3R,4R,5S)-4-fluoro-3,5-dimethylpiperidin-1-yl)pyridin-2-yl)amino)-1-(2-(dimethylamino)ethyl)-2-oxo-1,2-dihydroquinolin-3-yl)oxy)-N-methylacetamide]
62	C[C@@H]1CN(c2nc(Nc3ccc4c(c3)n(CCC(C)(C)O)c(=O)n4CC3COC3)c(Cl)cc2C#N)C[C@H](N)C1(F)F [Compound 37, 2-((3S,5R)-3-Amino-4,4-difluoro-5-methylpiperidin-1-yl)-5-chloro-6-((3-(3-hydroxy-3-methylbutyl)-1-(oxetan-3-ylmethyl)-2-oxo-2,3-dihydro-1H-benzo[d]imidazol-5-yl)amino)nicotinonitrile]
8	CNC(=O)COc1cc2cc(Nc3nc(N4C[C@@H](CCO)C(F)(F)[C@@H](C)C4)c(C#N)cc3Cl)ccc2n(C)c1=O [Compound 62, 2-((6-((3-chloro-5-cyano-6-((3R,5S)-4,4-difluoro-3-(2-hydroxyethyl)-5-methylpiperidin-1-yl)pyridin-2-yl)amino)-1-methyl-2-oxo-1,2-dihydroquinolin-3-yl)oxy)-N-methylacetamide]
56	CNC(=O)COc1cc2cc(Nc3nc(N4C[C@@H](C)C(F)(F)[C@@H](C)C4)c(C#N)cc3Cl)ccc2n(CC2CNC2)c1=O [Compound 65, 2-((1-(Azetidin-3-ylmethyl)-6-((3-chloro-5-cyano-6-((3R,5S)-4,4-difluoro-3,5-dimethylpiperidin-1-yl)pyridin-2-yl)amino)-2-oxo-1,2-dihydroquinolin-3-yl)oxy)-N-methylacetamide]
7	CNC(=O)COc1cc2cc(Nc3nc(N4C[C@@H](C)[C@H](F)[C@@H](C)C4)c(C#N)cc3Cl)ccc2n(C)c1=O [Compound 64, 2-((6-((3-chloro-5-cyano-6-((3R,4r,5S)-4-fluoro-3,5-dimethylpiperidin-1-yl)pyridin-2-yl)amino)-1-methyl-2-oxo-1,2-dihydroquinolin-3-yl)oxy)-N-methylacetamide]
17	C[C@@H]1CN(c2nc(Nc3ccc4c(c3)n(CCC(C)(C)O)c(=O)n4C)c(F)cc2C#N)C[C@H](O)[C@@H]1F [Compound 52, 5-Fluoro-2-((3S,4R,5R)-4-fluoro-3-hydroxy-5-methylpiperidin-1-yl)-6-((3-(3-hydroxy-3-methylbutyl)-1-methyl-2-oxo-2,3-dihydro-1H-benzo[d]imidazol-5-yl)amino)nicotinonitrile]
118	C[C@@H](O)Cn1c(=O)n(CCC(C)(C)O)c2cc(Nc3nc(N4C[C@@H](N)C(F)(F)[C@@H](C)C4)c(C#N)cc3F)ccc21 [Compound 91, 2-((3R,5S)-3-Amino-4,4-difluoro-5-methylpiperidin-1-yl)-5-fluoro-6-((3-(3-hydroxy-3-methylbutyl)-1-((R)-2-hydroxypropyl)-2-oxo-2,3-dihydro-1H-benzo[d]imidazol-5-yl)amino)nicotinonitrile]
> 400	C[C@H]1CN(c2nc(Nc3ccc4c(c3)n(CCC(C)(C)O)c(=O)n4CC3COC3)c(Cl)cc2C#N)C[C@@H](N)C1(F)F [Compound 38, 2-((3R,5S)-3-Amino-4,4-difluoro-5-methylpiperidin-1-yl)-5-chloro-6-((3-(3-hydroxy-3-methylbutyl)-1-(oxetan-3-ylmethyl)-2-oxo-2,3-dihydro-1H-benzo[d]imidazol-5-yl)amino)nicotinonitrile]
> 400	C[C@@H]1C[C@H](N)CN(c2nc(Nc3ccc4c(c3)c3c(c(=O)n4C)OCC(F)(F)[C@H](C4CC4)N3)c(Cl)cc2C#N)C1 [Compound 25, 2-((3S,5R)-3-Amino-5-methylpiperidin-1-yl)-5-chloro-6-(((S)-2-cyclopropyl-3,3-difluoro-7-methyl-6-oxo-1,2,3,4,6,7-hexahydro-[1,4]oxazepino[2,3-c]quinolin-10-yl)amino)nicotinonitrile]
6	CNC(=O)COc1cc2cc(Nc3nc(N4C[C@@H](C)[C@@H](O)[C@@H](C)C4)c(C#N)cc3Cl)ccc2n(C)c1=O [Compound 46, 2-((6-((3-Chloro-5-cyano-6-((3R,4s,5S)-4-hydroxy-3,5-dimethylpiperidin-1-yl)pyridin-2-yl)amino)-1-methyl-2-oxo-1,2-dihydroquinolin-3-yl)oxy)-N-methylacetamide]
> 400	CNC(=O)COc1cc2cc(Nc3nc(N4C[C@H](C)C[C@H](N)C4)c(C#N)cc3Cl)ccc2n(C)c1=O [Compound 40, 2-((6-((6-((3S,5R)-3-Amino-5-methylpiperidin-1-yl)-3-chloro-5-cyanopyridin-2-yl)amino)-1-methyl-2-oxo-1,2-dihydroquinolin-3-yl)oxy)-N-methylacetamide]
